biological target: ALK (Homo sapiens, UniProt Q9UM73); experiment: Test for measurement of ALK inhibition (ELISA, GST-PLCγ1 substrate, luminescence); assay type: biochemical; settings: comparative tests; read-out: Alk enzymatic inhibition (IC50)
Protocol: Test for Measurement of ALK Inhibition
A ViewPlate microplate (Packard) is incubated with 0.1 mg/ml GST-PLCγ1 substrate (purified recombinant form) in phosphate buffer (PBS, pH 7.4) (100 μl/well) for one hour under stirring. The plate is then saturated with blocking solution comprising 5% bovine serum albumin (BSA) (Sigma) in PBS buffer, pH 7.4.
After having added the inhibitor at the desired final concentration (typical range between 30 μM and 10 nM), the reaction is carried out by adding 180 ng/ml ALK to a reaction buffer comprised of 13 mM Tris, pH 7.5 (Sigma); 6.5 mM MgCl2 (Merck); 0.65 mM dithiothreitol (DTT) (Acros); 39 mM sodium β-glycerophosphate (TCI); 0.65 mM sodium orthovanadate (Sigma); and 250 μM ATP (Sigma). Incubation is carried out for 30 minutes at 30° C. under stirring.
After three washings under stirring in 0.1% PBS/Tween-20 buffer (Sigma), an anti-phosphotyrosine antibody, coupled with HRP (UBI) diluted to 1/1000 in 5 mg/ml PBS/BSA buffer, is incubated for one hour with stirring. After three new washings in 0.1% PBS/Tween-20, the wells are incubated for two minutes with 100 μl of SuperSignal ELISA mixture (Pierce).
The signal is read in luminescence mode using a luminometer (SpectraMax M5e, Molecular Devices).

Sequence of ALK (Q9UM73 19-1620): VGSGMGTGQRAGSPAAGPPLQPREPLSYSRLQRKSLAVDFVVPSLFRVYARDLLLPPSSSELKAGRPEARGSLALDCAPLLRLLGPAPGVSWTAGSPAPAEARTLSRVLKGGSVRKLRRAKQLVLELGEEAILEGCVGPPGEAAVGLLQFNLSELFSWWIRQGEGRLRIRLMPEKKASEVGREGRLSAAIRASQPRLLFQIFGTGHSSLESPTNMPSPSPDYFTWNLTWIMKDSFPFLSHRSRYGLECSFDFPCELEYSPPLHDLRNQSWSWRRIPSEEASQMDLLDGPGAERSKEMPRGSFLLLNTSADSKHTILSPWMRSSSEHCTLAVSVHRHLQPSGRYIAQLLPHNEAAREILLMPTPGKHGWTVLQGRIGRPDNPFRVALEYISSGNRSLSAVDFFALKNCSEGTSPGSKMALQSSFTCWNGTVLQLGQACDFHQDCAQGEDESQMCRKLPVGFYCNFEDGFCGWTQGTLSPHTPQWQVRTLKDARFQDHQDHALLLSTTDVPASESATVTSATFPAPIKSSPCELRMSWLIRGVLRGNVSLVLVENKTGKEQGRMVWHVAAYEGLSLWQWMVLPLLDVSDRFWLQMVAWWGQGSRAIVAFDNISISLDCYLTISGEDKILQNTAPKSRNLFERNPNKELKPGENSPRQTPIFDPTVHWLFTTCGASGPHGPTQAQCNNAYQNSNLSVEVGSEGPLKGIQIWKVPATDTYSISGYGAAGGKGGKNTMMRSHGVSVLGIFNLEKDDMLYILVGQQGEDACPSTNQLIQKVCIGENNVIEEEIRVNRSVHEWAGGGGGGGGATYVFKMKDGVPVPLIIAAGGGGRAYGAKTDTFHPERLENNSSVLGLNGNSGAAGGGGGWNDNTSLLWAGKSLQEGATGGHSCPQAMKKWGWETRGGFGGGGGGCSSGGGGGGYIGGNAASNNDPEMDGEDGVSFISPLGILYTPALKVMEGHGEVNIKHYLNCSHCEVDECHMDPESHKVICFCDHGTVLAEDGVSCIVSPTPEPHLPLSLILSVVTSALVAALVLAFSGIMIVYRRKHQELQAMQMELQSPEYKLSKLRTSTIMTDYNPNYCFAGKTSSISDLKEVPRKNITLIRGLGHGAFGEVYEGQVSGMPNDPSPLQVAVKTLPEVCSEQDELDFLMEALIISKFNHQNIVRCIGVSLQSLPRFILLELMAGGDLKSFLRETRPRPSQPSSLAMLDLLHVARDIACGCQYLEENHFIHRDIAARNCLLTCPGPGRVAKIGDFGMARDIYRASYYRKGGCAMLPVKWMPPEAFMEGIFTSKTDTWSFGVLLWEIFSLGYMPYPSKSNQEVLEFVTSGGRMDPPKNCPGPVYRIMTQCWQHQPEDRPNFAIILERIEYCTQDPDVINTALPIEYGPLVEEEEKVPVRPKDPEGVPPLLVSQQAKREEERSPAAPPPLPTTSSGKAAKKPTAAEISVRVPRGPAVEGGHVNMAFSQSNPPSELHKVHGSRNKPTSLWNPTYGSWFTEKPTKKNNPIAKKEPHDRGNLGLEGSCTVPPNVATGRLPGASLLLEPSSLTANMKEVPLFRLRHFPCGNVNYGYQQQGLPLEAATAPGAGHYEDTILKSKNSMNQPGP

IC50 [nM]	Structure (SMILES)
2.5	Cc1n[nH]c2nc(-c3ccc(O)cc3)c3c(=O)[nH]c4ccccc4c3c12 [Compound 02]
35	Cc1n[nH]c2nc(-c3ccc(O)cc3)c3cnc4ccccc4c3c12 [Compound 06]
70	Cc1n[nH]c2nc(-c3ccc(O)cc3)c3ccccc3c12 [Comparative compound 98, reference compound]

same assay, conditions: enzymatic IC50 on ALK, 250 μM ATP, class symbols; read-out: IC50 (ALK)

Structure (SMILES)	IC50 [nM]
Cc1n[nH]c2nc(-c3ccc(O)cc3)c3c(=O)n(CCN4CCNCC4)c4ccccc4c3c12 [Compound 15]	100 to 1000
CCn1cc(-c2ccc(N3CCNCC3)cc2)c2c(c(-c3ccc(O)cc3)nc3[nH]nc(N)c32)c1=O [Compound 54]	1000 to 10000
Cc1n[nH]c2nc(-c3ccc(O)cc3)c3c(=O)[nH]ccc3c12 [Compound 35]	1000 to 10000
CCn1c(=O)c2c(-c3cc(F)cc(F)c3)nc3[nH]nc(N)c3c2c2ccc(N3CCNCC3)cc21 [Compound 55]	100 to 1000
Cn1ccc2c(c(-c3cc(F)cc(F)c3)nc3[nH]nc(N)c32)c1=O [Compound 45]	1000 to 10000
Cc1n[nH]c2nc(-c3ccc(O)c(C(F)(F)F)c3)c3c(=O)[nH]c4cc(N5CCNCC5)ccc4c3c12 [Compound 41]	100 to 1000
Cc1nn(C(=O)OC(C)(C)C)c2nc(-c3ccc(OC(=O)C(C)(C)C)cc3)c3c(=O)[nH]c4cc(N5CCN(C(=O)OC(C)(C)C)CC5)ccc4c3c12 [Compound 50]	100 to 1000
CCOC(=O)Oc1ccc(-c2nc3c(c(C)nn3C(=O)OCC)c3c2c(=O)[nH]c2cc(N4CCN(C(=O)OCC)CC4)ccc23)cc1 [Compound 48]	1000 to 10000
O=C1c2cc(N3CCNCC3)ccc2-c2c1c(-c1c(F)ccc(F)c1F)nc1[nH]nc(-c3cccs3)c21 [Compound 03]	1000 to 10000
CCOc1nc2cc(N3CCNCC3)ccc2c2c1c(-c1ccc(O)c(C(F)(F)F)c1)nc1[nH]nc(C)c12 [Compound 47]	100 to 1000
CCn1ccc2c(c(-c3ccc(O)cc3)nc3[nH]nc(C)c32)c1=O [Compound 44]	1000 to 10000
Nc1n[nH]c2nc(-c3cc(F)cc(F)c3)c3c(=O)[nH]c4cc(N5CCNCC5)ccc4c3c12 [Compound 36]	1000 to 10000
Nc1n[nH]c2nc(-c3ccc(O)cc3)c3c(=O)n(O)c4ccccc4c3c12 [Compound 42]	< 100
Cc1n[nH]c2nc(-c3ccc(O)cc3)c3c(=O)[nH]c4cc(N5CCNCC5)ccc4c3c12 [Compound 04]	< 100
Cc1n[nH]c2nc(-c3ccc(O)cc3)c3c(=O)oc4ccccc4c3c12 [Compound 09]	100 to 1000
Cc1n[nH]c2nc(-c3ccc(O)cc3)c3c(=O)[nH]c4cc(OCCCN5CCNCC5)ccc4c3c12 [Compound 13]	< 100
Cc1n[nH]c2nc(-c3ccc(O)cc3)c3c(=O)oc(-c4ccccc4)cc3c12 [Compound 28]	100 to 1000
COc1ccc(-c2nc3[nH]nc(C)c3c3c2c(=O)oc2ccccc23)cc1 [Compound 08]	1000 to 10000
Nc1n[nH]c2nc(-c3ccc(O)cc3)c3c(=O)[nH]ccc3c12 [Compound 39]	1000 to 10000
Cc1n[nH]c2nc(-c3ccc(O)cc3)c3c(=O)[nH]c4cc(N5CC[C@@H](N)C5)ccc4c3c12 [Compound 11]	< 100
Cc1n[nH]c2nc(-c3cc(F)cc(F)c3)c3c(=O)[nH]c4cc(N5CCNCC5)ccc4c3c12 [Compound 31]	1000 to 10000
COc1ccc(-c2nc3[nH]nc(N)c3c3c2c(=O)[nH]c2ccc(N4CCNCC4)cc23)cc1 [Compound 22]	1000 to 10000
CCn1c(=O)c2c(-c3ccc(O)cc3)nc3[nH]nc(N)c3c2c2ccc(N3CCNCC3)cc21 [Compound 37]	< 100
Cc1n[nH]c2nc(-c3ccc(O)cc3)c3c(=O)n(CCCN(C)C)c4ccccc4c3c12 [Compound 07]	< 100
Cc1n[nH]c2nc(-c3ccc(O)cc3)c3c(=O)n(CCCN(C)C)c4cc(N5CCNCC5)ccc4c3c12 [Compound 12]	< 100
Cc1n[nH]c2nc(-c3ccc(O)c(C(=O)O)c3)c3c(=O)[nH]c4cc(N5CCNCC5)ccc4c3c12 [Compound 27]	1000 to 10000

Other lines, results leading:

IC50 [nM]	Structure (SMILES)
< 100	CC(=O)Oc1ccc(-c2nc3[nH]nc(C)c3c3c2c(=O)[nH]c2cc(N4CCNCC4)ccc23)cc1 [Compound 17]
< 100	Cc1n[nH]c2nc(-c3ccc(O)cc3)c3c(=O)n(CCCN4CCN(C)CC4)c4ccccc4c3c12 [Compound 10]
< 100	O=c1[nH]c2ccccc2c2c1c(-c1ccc(O)cc1)nc1[nH]nc(-c3ccc(N4CCNCC4)cc3)c12 [Compound 05]
< 100	Cc1n[nH]c2nc(-c3ccc(O)cc3)c3c(=O)[nH]c4cc(N5CCN(C6CCN(C)CC6)CC5)ccc4c3c12 [Compound 21]
< 100	CCn1c(=O)c2c(-c3ccc(O)c(C(F)(F)F)c3)nc3[nH]nc(C)c3c2c2ccc(N3CCNCC3)cc21 [Compound 46]
< 100	Nc1n[nH]c2nc(-c3ccc(O)cc3F)c3c(=O)[nH]c4ccccc4c3c12 [Compound 38]
< 100	Cc1cc2c(o1)-c1c(c(-c3ccc(O)cc3)nc3[nH]nc(C)c13)C2=O [Compound 01]
< 100	CN1CCN(c2ccc(C(=O)Nc3n[nH]c4nc(-c5ccc(O)cc5)c5c(=O)[nH]c6ccccc6c5c34)cc2)CC1 [Compound 52]
< 100	CCn1c(=O)c2c(-c3ccc(O)cc3)nc3[nH]nc(C)c3c2c2ccc(N3CCNCC3)cc21 [Compound 20]
< 100	Cc1n[nH]c2nc(-c3ccc(O)cc3)c3c(c12)CCNC3=O [Compound 53]
< 100	Nc1n[nH]c2nc(-c3ccc(O)cc3)c3c(=O)[nH]c4ccccc4c3c12 [Compound 24]
< 100	Cc1n[nH]c2nc(-c3ccc(O)cc3)c3c(=O)[nH]c4ccccc4c3c12 [Compound 02]
< 100	CC(=O)Oc1ccc(-c2nc3c(c(C)nn3C(C)=O)c3c2c(=O)[nH]c2cc(N4CCNCC4)ccc23)cc1 [Compound 49]
< 100	Nc1n[nH]c2nc(-c3ccc(O)cc3)c3c(=O)[nH]c4ccc(N5CCNCC5)cc4c3c12 [Compound 25]
< 100	CCOc1ccc(-c2nc3[nH]nc(C)c3c3c2c(=O)[nH]c2cc(N4CCNCC4)ccc23)cc1 [Compound 19]
< 100	CCOc1cc(F)cc(-c2nc3[nH]nc(C)c3c3c2c(=O)n(CC)c2cc(N4CCNCC4)ccc32)c1 [Compound 33]
< 100	CC(=O)Nc1n[nH]c2nc(-c3ccc(O)cc3)c3c(=O)[nH]c4ccccc4c3c12 [Compound 23]
< 100	Cc1n[nH]c2nc(-c3ccc(O)cc3)c3c(=O)n(CCCN4CC[C@@H](N)C4)c4ccccc4c3c12 [Compound 14]
< 100	Cc1n[nH]c2nc(-c3ccc(O)cc3)c3c(=O)[nH]c4cc(N5CCC(N)CC5)ccc4c3c12 [Compound 18]
< 100	Cc1n[nH]c2nc(-c3cc(O)cc(F)c3)c3c(=O)[nH]c4cc(N5CCNCC5)ccc4c3c12 [Compound 30]
< 100	Nc1n[nH]c2nc(-c3ccc(O)cc3)c3c(=O)[nH]c4cc(N5CCNCC5)ccc4c3c12 [Compound 32]
< 100	COc1ccc(-c2nc3[nH]nc(N)c3c3c2c(=O)[nH]c2cc(N4CCNCC4)ccc23)cc1 [Compound 51]
< 100	O=c1[nH]c2cc(N3CCNCC3)ccc2c2c1c(-c1ccc(O)cc1)nc1[nH]nc(-c3ccco3)c12 [Compound 16]

system: Karpas 299 cells; experiment: Test for measurement of cell proliferation inhibition (Karpas 299), ATPlite; assay type: cell-based; settings: Homo sapiens, Karpas 299 cell line, 72 hours
Protocol: Test for Measurement of Cell Prolifearation Inhibition (Karpas 299)
The antiproliferative activity of the compounds according to the invention has been measured by the ATPlite technique (Perkin Ekmer).
Human cells of non-adherent anaplasic large cell lymphoma (Karpas 299) are seeded in 96-well plates (300,000 cells/ml) on day 1, at a concentration compatible with a logarithmic growth for 72 hours necessary for the evaluation of the compounds according to the invention. All the cells are treated on day 1 and then placed in an incubator at 37° C., under a 5% CO2 atmosphere. Cell viability is evaluated on day 4 by dosing the emitted ATP, which is a characteristic of viable cells. IC50s are determined by a non linear regression based on a sigmoidal model of dose/response relationship, the Hill coefficient being let variable, performed with the GraphPad software according to the algorithm provided.

IC50 [nM]	Structure (SMILES)
168	Cc1n[nH]c2nc(-c3ccc(O)cc3)c3c(=O)[nH]c4ccccc4c3c12 [Compound 02]
1000	Cc1n[nH]c2nc(-c3ccc(O)cc3)c3cnc4ccccc4c3c12 [Compound 06]
4040	Cc1n[nH]c2nc(-c3ccc(O)cc3)c3ccccc3c12 [Comparative compound 98, reference compound]

— patent US9085575B2, “Tri- and tetracyclic pyrazolo[3,4-B]pyridine compounds as antineoplastic agent” (PIERRE FABRE MEDICAMENT, priority 2011, dated 2015)
